Results as given in the supplement of paper PMC11061612.

Tests used:
Assay in all cases: combination Emax (second highest fraction inhibited in the dose matrix, 72 h); higher = more inhibition; extreme values may be limits of the assay
IST-MES1 (Mesothelioma) = test system: IST-MES1 (Mesothelioma)
How it was run: (§1)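 Cell lines grown in DMEM/F12 or RPMI with 10% FBS were plated in 1536-well plates and held 24 hours at 37°C, 5% CO2 before 72 hours of exposure to two-drug dose matrices, with DMSO typically at 0.2%. CellTiter-Glo 2.0 luminescence gave viability, which was converted to inhibition. Vehicle wells were set to 0 and blank wells to 1. Combination Emax is the second-highest inhibition in the matrix, and Bliss excess is the observed combination effect minus the expected EA + EB − EA·EB, where EA and EB are the single-agent effects.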

[1] = test system: SHP-77 (Small Cell Lung Carcinoma)
How it was run: as §1

[2] = test system: PC-3_[JPC-3] (Lung Adenocarcinoma)
How it was run: as §1

[3] = test system: SK-PN-DW (Other Solid Carcinomas)
How it was run: as §1

[4] = test system: COLO-680N (Esophageal Squamous Cell Carcinoma)
How it was run: as §1

[5] = test system: VAL (B-Cell Non-Hodgkin's Lymphoma)
How it was run: as §1

[6] = test system: RCM-1 (Colorectal Carcinoma)
How it was run: as §1

[7] = test system: LK-2 (Squamous Cell Lung Carcinoma)
How it was run: as §1

SK-MEL-2 (Melanoma) = test system: SK-MEL-2 (Melanoma)
How it was run: as §1

[8] = test system: OVMIU (Ovarian Carcinoma)
How it was run: as §1

[9] = test system: OPM-2 (Plasma Cell Myeloma)
How it was run: as §1

[10] = test system: REH (B-Lymphoblastic Leukemia)
How it was run: as §1

[11] = test system: NCI-H2342 (Lung Adenocarcinoma)
How it was run: as §1

[12] = test system: MKN45 (Gastric Carcinoma)
How it was run: as §1

[13] = test system: CAL-62 (Thyroid Gland Carcinoma)
How it was run: as §1

NB12 (Neuroblastoma) = test system: NB12 (Neuroblastoma)
How it was run: as §1

[14] = test system: PANC-03-27 (Pancreatic Carcinoma)
How it was run: as §1

[15] = test system: L-1236 (Hodgkin's Lymphoma)
How it was run: as §1

[16] = test system: RKN (Other Solid Carcinomas)
How it was run: as §1

[17] = test system: TE-8 (Esophageal Squamous Cell Carcinoma)
How it was run: as §1

Cc1c2c(nn1C)CSCc1cc(n(C)n1)CSc1cc(c3ccccc3c1)OCCCc1c(C(=O)O)n(C)c3c-2c(Cl)ccc13 [AZD5991] + CC(=O)O[C@H]1C(=O)[C@@]2(C)[C@H]([C@H](OC(=O)c3ccccc3)[C@]3(O)C[C@H](OC(=O)[C@H](O)[C@@H](NC(=O)c4ccccc4)c4ccccc4)C(C)=C1C3(C)C)[C@]1(OC(C)=O)CO[C@@H]1C[C@@H]2O [Paclitaxel] (first compound max 1 µM, 7x7, partner max 3 µM)
combination Emax (IST-MES1 (Mesothelioma)): 0.651 | combination Emax [1]: 0.971 | combination Emax [2]: 0.58 | combination Emax [3]: 0.952 | combination Emax [4]: 0.476 | combination Emax [5]: 0.765 | combination Emax [6]: 0.342 | combination Emax [7]: 0.986 | combination Emax (SK-MEL-2 (Melanoma)): 1 | combination Emax [8]: 0.735 | combination Emax [9]: 1 | combination Emax [10]: 1 | combination Emax [11]: 0.988 | combination Emax [12]: 0.709 | combination Emax [13]: 0.81 | combination Emax (NB12 (Neuroblastoma)): 0.91 | combination Emax [14]: 0.688 | combination Emax [15]: 0.846 | combination Emax [16]: 0.839 | combination Emax [17]: 0.702
